Test results from US6361788B1, “Synergistic biocide composition” (Thor Chemie GmbH, priority 1997, dated 2002).
Where two headings read alike, the source gives them in different places.

Experiments:
Assay type in all cases: cell-based
Escherichia coli = assay: MIC and synergy of MIT/BIT (1:1) and HCHO in Müller-Hinton broth, 48 h
Method: (§1) The synergy index is calculated according to the method of F. C. Kull et al., Applied Microbiology, Vol. 9 (1961), p. 538. Here the synergy index is calculated using the following formula:
(§2) Synergy index SI=Qa/QA+Qb/QB.
The test batches contained a Müller-Hinton broth as a nutrient medium. The cell density was 10^6 cells/mL. The incubation time was 48 b at 25° C. Each sample was incubated on an incubation shaker at 120 rpm.

Pseudomonas aeruginosa [1] = assay: as above
Method: as §1, §2
The test batches contained a Müller-Hinton broth as a nutrient medium. The cell density was 10^6 cells/mL. The incubation time was 48 h at 25° C. Each sample was incubated on an incubation shaker at 120 rpm.

Aspergillus niger [2] = assay: MIC and synergy of MIT/BIT (1:1) and IPBC in Sabouraud maltose broth, 72 h
Method: (§3) In all the examples in which an active substance mixture of MIT and BIT as well as additionally a further active biocidal substance was used, the weight ratio of MIT to BIT was 1:1.
as §1, §2
The synergy of an active substance mixture that contains 3-iodo-2-propinyl-N-butyl carbamate (IPBC) in addition to MIT and BIT, against the microorganism Aspergillus niger is shown as in Example 1.
(§4) The test batches contained a Sabouraud maltose broth as a nutrient medium. The spore concentration was 10^6 per mL. The incubation time was 72 h at 25° C. Each sample was incubated on an incubation shaker at 120 rpm.

Penicillium funiculosum [3] = assay: as above
Method: as §3, §1, §2
The synergy of an active substance mixture that contains IPBC in addition to MIT and BIT, against the microorganism Penicillium funiculosum is shown as in Example 1.
as §4

Pseudomonas aeruginosa [4] = assay: MIC and synergy of MIT/BIT (1:1) and OIT in Müller-Hinton broth, 144 h
Method: as §3, §1, §2
The synergy of an active substance mixture that contains OIT in addition to MIT and BIT, against the microorganism Pseudomonas aeruginosa is shown as in Example 1.
The test batches contained a Müller-Hinton broth as a nutrient medium. The cell density was 10^6 cells/mL. The incubation time was 144 h at 25° C. Each sample was incubated on an incubation shaker at 120 rpm.

Aspergillus niger [5] = assay: MIC and synergy of MIT/BIT (1:1) and OIT in Sabouraud maltose broth, 72 h
Method: as §3, §1, §2
The synergy of an active substance mixture that contains 2-n-octylisothiazolin-3-one (OIT) in addition to MIT and BIT, against the microorganism Aspergillus niger is shown as in Example 1.
as §4

Penicillium funiculosum [6] = assay: as above; conditions: for growth of the microorganism: MIT/BIT ppm = row head c0
Method: as §3, §1, §2
The synergy of an active substance mixture that contains OIT in addition to MIT and BIT, against the microorganism Penicillium funiculosum is shown as in Example 1.
as §4

Saccharomyces cerevisiae = assay: as above
Method: as §3, §1, §2
The synergy of an active substance mixture that contains OIT in addition to MIT and BIT, against the microorganism Saccharomyces cerevisiae is shown as in Example 1.
The test batches contained a Sabouraud maltose broth as a nutrient medium. The cell density was 10^6 cells/mL. The incubation time was 72 h at 25° C. Each sample was incubated on an incubation shaker at 120 rpm.

[7] = at the MIC, Aspergillus niger, 72 h
[8] = at the MIC, Penicillium funiculosum, 72 h
Throughout, for growth of the microorganism: key: growth of the microorganism took place (symbol '+'); or not (symbol '−').

`C=O` [HCHO, formaldehyde] was tested, and the Qb/QB (Escherichia coli; 48 h) was 1.00, the “Synergy index Qa/QA + Qb/QB” value (Escherichia coli; 48 h) was 1.00 and the MIC (Escherichia coli; 48 h, read-out: MIC at HCHO concentration Qb) was 300 µg/mL. The “Total concentration MIT/BIT + HCHO” value (Escherichia coli; at the MIC, 48 h) was 300 ppm, the MIC (Escherichia coli; read-out: MIC value) was 300 µg/mL and the Qb/QB (Pseudomonas aeruginosa [1]) was 1.00. The “Synergy index Qa/QA + Qb/QB” value (Pseudomonas aeruginosa [1]) was 1.00, the “Total concentration MIT/BIT + HCHO” value (Pseudomonas aeruginosa [1]; at the MIC) was 300 ppm and the MIC (Pseudomonas aeruginosa [1]; read-out: MIC at HCHO concentration Qb) was 300 µg/mL. It also gave an MIC (Pseudomonas aeruginosa [1]; read-out: MIC value) of 300 µg/mL.

In the case of `CCCCNC(=O)OCC#CI` [IPBC, 3-iodo-2-propinyl-N-butyl carbamate], the Qb/QB (Aspergillus niger [2]; Aspergillus niger, 72 h) is reported as 1.00, the “Synergy index Qa/QA + Qb/QB” value (Aspergillus niger [2]; Aspergillus niger, 72 h) is reported as 1.00 and the “MIC at IPBC concentration Qb” value (Aspergillus niger [2]; IPBC share at the MIC, Aspergillus niger, 72 h) is reported as 2.5 ppm. For the same molecule, the “Total concentration BIT/MIT + IPBC Qa + Qb” value (Aspergillus niger [2]; [7]) was 2.5 ppm, the MIC value (Aspergillus niger [2]; used alone, 72 h at 25° C.) was 2.5 ppm and the “MIC at IPBC concentration Qb” value (Penicillium funiculosum [3]; IPBC share at the MIC, Penicillium funiculosum, 72 h) was 0.75 ppm. For the same molecule, the Qb/QB (Penicillium funiculosum [3]; Penicillium funiculosum, 72 h) was 1.00, the “Synergy index Qa/QA + Qb/QB” value (Penicillium funiculosum [3]; Penicillium funiculosum, 72 h) was 1.00 and the “Total concentration MIT/BIT + IPBC” value (Penicillium funiculosum [3]; [8]) was 0.75 ppm. The MIC value (Penicillium funiculosum [3]; used alone, 72 h at 25° C.) was 0.75 ppm.

`CCCCCCCCn1sccc1=O` [OIT, 2-n-octylisothiazolin-3-one] was tested, and the “MIC at OIT concentration Qb” value (Pseudomonas aeruginosa [4]; OIT share at the MIC, Pseudomonas aeruginosa, 144 h) was 900 ppm, the Qb/QB (Pseudomonas aeruginosa [4]; Pseudomonas aeruginosa, 144 h) was 1.00 and the “Synergy index Qa/QA + Qb/QB” value (Pseudomonas aeruginosa [4]; Pseudomonas aeruginosa, 144 h) was 1.00. The “Total concentration MIT/BIT + OIT” value (Pseudomonas aeruginosa [4]; at the MIC, Pseudomonas aeruginosa, 144 h) was 900 ppm, the MIC value (Pseudomonas aeruginosa [4]; used alone, 144 h at 25° C.) was “over 800 ppm” and the Qb/QB (Aspergillus niger [5]; Aspergillus niger, 72 h) was 1.00. For the same molecule, the “Synergy index Qa/QA + Qb/QB” value (Aspergillus niger [5]; Aspergillus niger, 72 h) was 1.00, the “MIC at OIT concentration Qb” value (Aspergillus niger [5]; OIT share at the MIC, Aspergillus niger, 72 h) was 5 ppm and the “Total concentration MIT/BIT + OIT” value (Aspergillus niger [5]; [7]) was 5 ppm. For the same molecule, the MIC value (Aspergillus niger [5]; used alone, 72 h at 25° C.) was 5 ppm, the “growth of the microorganism” value (Penicillium funiculosum [6]; OIT 0.25 ppm, 72 h) was “+” and the “growth of the microorganism” value (Penicillium funiculosum [6]; OIT 0.5 ppm, 72 h) was “+”. The “growth of the microorganism” value (Penicillium funiculosum [6]; OIT 1 ppm, 72 h) was “+”, the “growth of the microorganism” value (Penicillium funiculosum [6]; OIT 2.5 ppm, 72 h) was “+” and the “growth of the microorganism” value (Penicillium funiculosum [6]; OIT 5 ppm, 72 h) was “−”. The “MIC at OIT concentration Qb” value (Penicillium funiculosum [6]; OIT share at the MIC, Penicillium funiculosum, 72 h) was 5 ppm, the Qb/QB (Penicillium funiculosum [6]; Penicillium funiculosum, 72 h) was 1.00 and the “Synergy index Qa/QA + Qb/QB” value (Penicillium funiculosum [6]; Penicillium funiculosum, 72 h) was 1.00. The “Total concentration MIT/BIT + OIT” value (Penicillium funiculosum [6]; [8]) was 5 ppm, the MIC value (Penicillium funiculosum [6]; used alone, 72 h at 25° C.) was 5 ppm and the “MIC at OIT concentration Qb” value (Saccharomyces cerevisiae; OIT share at the MIC, Saccharomyces cerevisiae, 72 h) was 5 ppm. For the same molecule, the Qb/QB (Saccharomyces cerevisiae; Saccharomyces cerevisiae, 72 h) was 1.00, the “Synergy index Qa/QA + Qb/QB” value (Saccharomyces cerevisiae; Saccharomyces cerevisiae, 72 h) was 1.00 and the “Total concentration MIT/BIT + OIT” value (Saccharomyces cerevisiae; at the MIC, Saccharomyces cerevisiae, 72 h) was 5 ppm. For the same molecule, the MIC value (Saccharomyces cerevisiae; used alone, 72 h at 25° C.) was 5 ppm.
